Test results taken from PubChem BioAssay AID2060897 (Molecular Pharmacology Branch, DTP, NCI, 2025).

Test system: 966289-007-R4-J1-PDC complex spheroid viability
Test: Anticancer human tumor 966289-007-R4-J1-PDC patient-derived pancreatic adenocarcinoma cell line growth inhibition [RAS]
Details: for viability, T/C: stronger effect = lower value
In short: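 Agents were tested in combination matrices in half-log decrements from a top concentration at or near clinical Cmax (10 microM if undetermined). Targets were multi-cell spheroids of tumour lines plus HUVEC and MSC stromal cells.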

[1] = curve of first compound, second compound 0.00316 µM
[2] = curve of first compound, second compound 0.01 µM
[3] = curve of first compound, second compound 0.0316 µM
[4] = curve of first compound, second compound 0.1 µM
[5] = curve of first compound, second compound 0.316 µM
[6] = curve of first compound, second compound 1 µM
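Note: spheroids exposed to agents for one week before readout.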
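Throughout, for viability, T/C: percent viability relative to DMSO vehicle control wells as 100%.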

CC1(C)CCC(Nc2ncc(C(F)(F)F)c(-c3c[nH]c4c(P(C)(C)=O)c(C#N)ccc34)n2)CN1 (stereo not given) + C=CC(=O)N1CCN(c2nc(OCC3CCCN3C)nc3c(F)c(-c4nc(N)cc(C)c4C(F)(F)F)c(Cl)cc23)C(C)C1
IC50 [1]: 10.2 nM
IC50 [2]: 12.4 nM
IC50 [3]: 6.79 nM
IC50 [4]: 13.1 nM
IC50 [5]: 12.2 nM
IC50 [6]: 13.8 nM
viability, T/C (second compound 0.00316 µM, first compound 0.000949 µM): 103%
viability, T/C (second compound 0.00316 µM, first compound 0.003 µM): 113%
viability, T/C (second compound 0.00316 µM, first compound 0.00949 µM): 52.6%
viability, T/C (second compound 0.00316 µM, first compound 0.03 µM): 14%
viability, T/C (second compound 0.00316 µM, first compound 0.0949 µM): 9.67%
viability, T/C (second compound 0.00316 µM, first compound 0.3 µM): 8.68%
viability, T/C (second compound 0.01 µM, first compound 0.000949 µM): 102%
viability, T/C (second compound 0.01 µM, first compound 0.003 µM): 124%
viability, T/C (second compound 0.01 µM, first compound 0.00949 µM): 61.4%
viability, T/C (second compound 0.01 µM, first compound 0.03 µM): 16.4%
viability, T/C (second compound 0.01 µM, first compound 0.0949 µM): 8.51%
viability, T/C (second compound 0.01 µM, first compound 0.3 µM): 9.49%
viability, T/C (second compound 0.0316 µM, first compound 0.000949 µM): 97.4%
viability, T/C (second compound 0.0316 µM, first compound 0.003 µM): 99.6%
viability, T/C (second compound 0.0316 µM, first compound 0.00949 µM): 30.1%
viability, T/C (second compound 0.0316 µM, first compound 0.03 µM): 15.9%
viability, T/C (second compound 0.0316 µM, first compound 0.0949 µM): 10.5%
viability, T/C (second compound 0.0316 µM, first compound 0.3 µM): 9.47%
viability, T/C (second compound 0.1 µM, first compound 0.000949 µM): 118%
viability, T/C (second compound 0.1 µM, first compound 0.003 µM): 117%
viability, T/C (second compound 0.1 µM, first compound 0.00949 µM): 64%
viability, T/C (second compound 0.1 µM, first compound 0.03 µM): 13.9%
viability, T/C (second compound 0.1 µM, first compound 0.0949 µM): 9.91%
viability, T/C (second compound 0.1 µM, first compound 0.3 µM): 8.45%
viability, T/C (second compound 0.316 µM, first compound 0.000949 µM): 103%
viability, T/C (second compound 0.316 µM, first compound 0.003 µM): 108%
viability, T/C (second compound 0.316 µM, first compound 0.00949 µM): 59.7%
viability, T/C (second compound 0.316 µM, first compound 0.03 µM): 15.8%
viability, T/C (second compound 0.316 µM, first compound 0.0949 µM): 8.13%
viability, T/C (second compound 0.316 µM, first compound 0.3 µM): 8.27%
viability, T/C (second compound 1 µM, first compound 0.000949 µM): 113%
viability, T/C (second compound 1 µM, first compound 0.003 µM): 118%
viability, T/C (second compound 1 µM, first compound 0.00949 µM): 67.2%
viability, T/C (second compound 1 µM, first compound 0.03 µM): 15.6%
viability, T/C (second compound 1 µM, first compound 0.0949 µM): 9.94%
viability, T/C (second compound 1 µM, first compound 0.3 µM): 7.89%

CCN1CCN(Cc2ccc(Nc3ncc(F)c(-c4cc(F)c5nc(C)n(C(C)C)c5c4)n3)nc2)CC1 + C=CC(=O)N1CCN(c2nc(OCC3CCCN3C)nc3c(F)c(-c4nc(N)cc(C)c4C(F)(F)F)c(Cl)cc23)C(C)C1
IC50 [1]: > 1000 nM
IC50 [2]: > 1000 nM
IC50 [3]: > 1000 nM
IC50 [4]: > 1000 nM
IC50 [5]: > 1000 nM
IC50 [6]: > 1000 nM
viability, T/C (second compound 0.00316 µM, first compound 0.00316 µM): 109%
viability, T/C (second compound 0.00316 µM, first compound 0.01 µM): 110%
viability, T/C (second compound 0.00316 µM, first compound 0.0316 µM): 101%
viability, T/C (second compound 0.00316 µM, first compound 0.1 µM): 95.8%
viability, T/C (second compound 0.00316 µM, first compound 0.316 µM): 83.5%
viability, T/C (second compound 0.00316 µM, first compound 1 µM): 76.2%
viability, T/C (second compound 0.01 µM, first compound 0.00316 µM): 96%
viability, T/C (second compound 0.01 µM, first compound 0.01 µM): 110%
viability, T/C (second compound 0.01 µM, first compound 0.0316 µM): 120%
viability, T/C (second compound 0.01 µM, first compound 0.1 µM): 107%
viability, T/C (second compound 0.01 µM, first compound 0.316 µM): 99.1%
viability, T/C (second compound 0.01 µM, first compound 1 µM): 72.6%
viability, T/C (second compound 0.0316 µM, first compound 0.00316 µM): 116%
viability, T/C (second compound 0.0316 µM, first compound 0.01 µM): 126%
viability, T/C (second compound 0.0316 µM, first compound 0.0316 µM): 106%
viability, T/C (second compound 0.0316 µM, first compound 0.1 µM): 113%
viability, T/C (second compound 0.0316 µM, first compound 0.316 µM): 84.8%
viability, T/C (second compound 0.0316 µM, first compound 1 µM): 72.8%
viability, T/C (second compound 0.1 µM, first compound 0.00316 µM): 107%
viability, T/C (second compound 0.1 µM, first compound 0.01 µM): 121%
viability, T/C (second compound 0.1 µM, first compound 0.0316 µM): 121%
viability, T/C (second compound 0.1 µM, first compound 0.1 µM): 109%
viability, T/C (second compound 0.1 µM, first compound 0.316 µM): 78.8%
viability, T/C (second compound 0.1 µM, first compound 1 µM): 78.7%
viability, T/C (second compound 0.316 µM, first compound 0.00316 µM): 106%
viability, T/C (second compound 0.316 µM, first compound 0.01 µM): 103%
viability, T/C (second compound 0.316 µM, first compound 0.0316 µM): 120%
viability, T/C (second compound 0.316 µM, first compound 0.1 µM): 105%
viability, T/C (second compound 0.316 µM, first compound 0.316 µM): 89.4%
viability, T/C (second compound 0.316 µM, first compound 1 µM): 73.4%
viability, T/C (second compound 1 µM, first compound 0.00316 µM): 98.5%
viability, T/C (second compound 1 µM, first compound 0.01 µM): 98.6%
viability, T/C (second compound 1 µM, first compound 0.0316 µM): 120%
viability, T/C (second compound 1 µM, first compound 0.1 µM): 102%
viability, T/C (second compound 1 µM, first compound 0.316 µM): 79%
viability, T/C (second compound 1 µM, first compound 1 µM): 77.2%

CCc1c2c(nc3ccc(O)cc13)-c1cc3c(c(=O)n1C2)COC(=O)[C@]3(O)CC
viability, T/C (compound 0.003 µM): 2.73% [middle of 4 runs]
viability, T/C (compound 0.00949 µM): 1.18% [middle of 4 runs]
viability, T/C (compound 0.03 µM): 0.96% [middle of 4 runs]
viability, T/C (compound 0.0949 µM): 0.88% [middle of 4 runs]
viability, T/C (compound 0.3 µM): 0.94% [middle of 4 runs]
IC50 (curve of compound): 1.62 nM [middle of 4 runs]
